According to ChEMBL document CHEMBL4190175 (Medchemcomm, 2016):
Converted amounts (≈) assume the structure as drawn.

Key:
[1] = Inhibition of GABA-A (unknown origin); set-up: species or system Homo sapiens
[2] = Lipophilicity, log D of the compound; format: physicochemical; settings: octanol/water
[3] = Dissociation constant, pKa of the compound; format: physicochemical
[4] = target: Transient receptor potential cation channel subfamily A member 1 (Rattus norvegicus, UniProt Q6RI86); experiment: Antagonist activity at rat TRPA1 by electrophysiology assay
Transient receptor potential cation channel subfamily A member 1 (Rattus norvegicus, UniProt Q6RI86), sequence (Q6RI86 whole entry): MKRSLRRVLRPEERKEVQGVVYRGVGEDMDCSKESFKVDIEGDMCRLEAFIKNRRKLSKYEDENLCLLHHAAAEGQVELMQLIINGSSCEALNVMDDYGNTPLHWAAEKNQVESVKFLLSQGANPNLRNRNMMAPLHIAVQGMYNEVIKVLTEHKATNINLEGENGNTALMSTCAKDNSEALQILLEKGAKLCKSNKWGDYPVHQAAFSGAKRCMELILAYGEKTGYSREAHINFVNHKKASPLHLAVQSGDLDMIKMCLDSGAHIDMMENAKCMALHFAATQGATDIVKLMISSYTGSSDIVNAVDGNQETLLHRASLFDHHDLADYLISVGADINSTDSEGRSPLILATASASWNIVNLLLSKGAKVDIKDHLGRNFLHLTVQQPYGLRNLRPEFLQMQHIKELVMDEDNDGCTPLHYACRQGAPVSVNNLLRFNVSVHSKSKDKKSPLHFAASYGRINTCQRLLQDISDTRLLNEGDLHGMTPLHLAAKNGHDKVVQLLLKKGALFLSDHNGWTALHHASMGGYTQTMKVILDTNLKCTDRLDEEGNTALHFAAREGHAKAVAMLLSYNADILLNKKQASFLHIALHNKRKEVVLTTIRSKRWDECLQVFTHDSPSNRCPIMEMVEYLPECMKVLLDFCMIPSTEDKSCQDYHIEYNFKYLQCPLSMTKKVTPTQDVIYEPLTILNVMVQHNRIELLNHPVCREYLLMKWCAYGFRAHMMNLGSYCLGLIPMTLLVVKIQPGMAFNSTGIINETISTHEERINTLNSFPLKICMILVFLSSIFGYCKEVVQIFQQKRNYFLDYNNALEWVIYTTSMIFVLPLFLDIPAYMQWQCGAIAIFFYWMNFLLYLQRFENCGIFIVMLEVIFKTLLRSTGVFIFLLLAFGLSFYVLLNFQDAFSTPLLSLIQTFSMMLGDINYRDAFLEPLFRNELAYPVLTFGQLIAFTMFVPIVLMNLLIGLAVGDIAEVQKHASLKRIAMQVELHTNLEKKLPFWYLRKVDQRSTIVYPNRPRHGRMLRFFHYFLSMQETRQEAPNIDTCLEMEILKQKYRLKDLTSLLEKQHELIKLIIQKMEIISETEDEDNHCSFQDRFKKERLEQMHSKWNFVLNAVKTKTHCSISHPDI

[5] = target: Transient receptor potential cation channel subfamily A member 1 (Mus musculus, UniProt Q8BLA8); experiment: Antagonist activity at mouse TRPA1 by electrophysiology assay
Transient receptor potential cation channel subfamily A member 1 (Mus musculus, UniProt Q8BLA8), sequence (Q8BLA8 whole entry): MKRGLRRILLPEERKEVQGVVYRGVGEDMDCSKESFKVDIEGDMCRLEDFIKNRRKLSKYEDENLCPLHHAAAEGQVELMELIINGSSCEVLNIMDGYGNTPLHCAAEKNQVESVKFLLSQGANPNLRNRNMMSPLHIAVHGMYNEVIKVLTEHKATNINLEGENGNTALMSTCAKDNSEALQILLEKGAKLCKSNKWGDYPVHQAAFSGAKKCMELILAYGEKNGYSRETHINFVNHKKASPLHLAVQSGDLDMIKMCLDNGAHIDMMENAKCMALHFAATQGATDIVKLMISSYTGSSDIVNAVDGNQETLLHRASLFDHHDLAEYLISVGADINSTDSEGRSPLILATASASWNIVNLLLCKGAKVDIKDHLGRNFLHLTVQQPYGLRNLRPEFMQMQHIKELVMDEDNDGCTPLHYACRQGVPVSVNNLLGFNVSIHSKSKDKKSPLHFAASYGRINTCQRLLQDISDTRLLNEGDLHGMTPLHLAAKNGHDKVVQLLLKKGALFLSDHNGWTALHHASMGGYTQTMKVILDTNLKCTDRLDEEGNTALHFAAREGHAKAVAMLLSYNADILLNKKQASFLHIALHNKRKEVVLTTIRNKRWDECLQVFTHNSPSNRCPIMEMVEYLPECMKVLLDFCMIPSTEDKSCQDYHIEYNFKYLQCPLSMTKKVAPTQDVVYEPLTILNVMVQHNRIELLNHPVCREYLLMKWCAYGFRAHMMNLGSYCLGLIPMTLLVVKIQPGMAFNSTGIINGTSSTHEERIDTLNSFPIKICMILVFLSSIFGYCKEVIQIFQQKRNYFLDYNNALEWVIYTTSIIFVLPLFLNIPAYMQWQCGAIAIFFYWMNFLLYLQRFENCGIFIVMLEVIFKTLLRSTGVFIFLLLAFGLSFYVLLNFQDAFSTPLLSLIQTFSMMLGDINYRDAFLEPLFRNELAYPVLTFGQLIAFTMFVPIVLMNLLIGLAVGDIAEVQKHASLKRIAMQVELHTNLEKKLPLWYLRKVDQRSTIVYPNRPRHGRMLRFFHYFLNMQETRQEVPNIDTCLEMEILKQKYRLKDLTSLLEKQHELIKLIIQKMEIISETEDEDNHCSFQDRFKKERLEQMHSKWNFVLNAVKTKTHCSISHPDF

[6] = Antagonist activity at pig TRPA1 by electrophysiology assay; set-up: species or system Sus scrofa
Hepatocyte [7] = experiment: Stability in human hepatocytes; format: ADME, cell-based
[8] = Stability in rat liver microsomes; format: ADME, microsome; settings: read-out: Stability
Hepatocyte [9] = experiment: Stability in rat hepatocytes; format: ADME, cell-based
[10] = Stability in dog plasma; format: ADME, cell-free, Canis lupus familiaris; settings: read-out: Stability
[11] = Stability in rat plasma; format: ADME, cell-free; settings: read-out: Stability
[12] = Kinetic solubility of the compound at pH 6.5; format: physicochemical; settings: buffer, read-out: Kinetic_solubility
[13] = Fraction unbound in dog plasma; format: ADME, cell-free, Canis lupus familiaris
[14] = Fraction unbound in rat plasma; format: ADME, cell-free
[15] = target: Voltage-gated inwardly rectifying potassium channel KCNH2 (Homo sapiens, UniProt Q12809); experiment: Inhibition of human ERG
[16] = target: Transient receptor potential cation channel subfamily M member 8 (Homo sapiens, UniProt Q7Z2W7); experiment: Inhibition of human TRPM8
Transient receptor potential cation channel subfamily M member 8, sequence (Q7Z2W7 whole entry): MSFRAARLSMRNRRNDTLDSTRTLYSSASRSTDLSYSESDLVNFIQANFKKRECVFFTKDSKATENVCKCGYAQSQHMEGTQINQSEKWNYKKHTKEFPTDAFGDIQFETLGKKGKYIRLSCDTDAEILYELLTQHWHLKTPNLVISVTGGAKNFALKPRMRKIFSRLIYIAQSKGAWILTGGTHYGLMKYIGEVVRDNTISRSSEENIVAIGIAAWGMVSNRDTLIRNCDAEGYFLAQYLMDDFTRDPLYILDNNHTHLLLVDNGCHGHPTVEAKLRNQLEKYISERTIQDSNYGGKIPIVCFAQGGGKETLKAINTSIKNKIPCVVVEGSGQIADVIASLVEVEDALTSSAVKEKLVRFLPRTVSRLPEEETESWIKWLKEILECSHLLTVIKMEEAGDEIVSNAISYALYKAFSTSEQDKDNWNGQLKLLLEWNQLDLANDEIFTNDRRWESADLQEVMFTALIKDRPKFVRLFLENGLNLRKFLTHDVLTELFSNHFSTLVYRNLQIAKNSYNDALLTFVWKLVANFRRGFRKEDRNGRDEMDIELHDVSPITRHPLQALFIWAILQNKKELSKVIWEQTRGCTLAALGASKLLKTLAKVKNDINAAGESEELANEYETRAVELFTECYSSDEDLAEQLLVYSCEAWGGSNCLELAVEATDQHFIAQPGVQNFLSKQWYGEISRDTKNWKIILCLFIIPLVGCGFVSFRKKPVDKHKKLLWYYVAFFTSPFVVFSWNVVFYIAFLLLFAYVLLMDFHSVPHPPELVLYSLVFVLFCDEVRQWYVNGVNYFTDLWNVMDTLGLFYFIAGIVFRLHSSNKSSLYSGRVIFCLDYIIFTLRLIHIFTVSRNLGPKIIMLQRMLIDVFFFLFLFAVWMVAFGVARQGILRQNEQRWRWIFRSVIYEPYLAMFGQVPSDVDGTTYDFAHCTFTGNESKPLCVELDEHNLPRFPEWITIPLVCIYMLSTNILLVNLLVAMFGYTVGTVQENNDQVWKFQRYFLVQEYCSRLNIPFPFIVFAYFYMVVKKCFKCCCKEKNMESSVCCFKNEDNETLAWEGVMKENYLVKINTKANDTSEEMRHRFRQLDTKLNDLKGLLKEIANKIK

[17] = target: Transient receptor potential cation channel subfamily V member 1 (Homo sapiens, UniProt Q8NER1); experiment: Inhibition of human TRPV1
[18] = target: Potassium voltage-gated channel subfamily A member 5 (Homo sapiens) (UniProt P22460); experiment: Inhibition of Kv1.5 (unknown origin)
Potassium voltage-gated channel subfamily A member 5 (Homo sapiens), sequence (P22460 whole entry): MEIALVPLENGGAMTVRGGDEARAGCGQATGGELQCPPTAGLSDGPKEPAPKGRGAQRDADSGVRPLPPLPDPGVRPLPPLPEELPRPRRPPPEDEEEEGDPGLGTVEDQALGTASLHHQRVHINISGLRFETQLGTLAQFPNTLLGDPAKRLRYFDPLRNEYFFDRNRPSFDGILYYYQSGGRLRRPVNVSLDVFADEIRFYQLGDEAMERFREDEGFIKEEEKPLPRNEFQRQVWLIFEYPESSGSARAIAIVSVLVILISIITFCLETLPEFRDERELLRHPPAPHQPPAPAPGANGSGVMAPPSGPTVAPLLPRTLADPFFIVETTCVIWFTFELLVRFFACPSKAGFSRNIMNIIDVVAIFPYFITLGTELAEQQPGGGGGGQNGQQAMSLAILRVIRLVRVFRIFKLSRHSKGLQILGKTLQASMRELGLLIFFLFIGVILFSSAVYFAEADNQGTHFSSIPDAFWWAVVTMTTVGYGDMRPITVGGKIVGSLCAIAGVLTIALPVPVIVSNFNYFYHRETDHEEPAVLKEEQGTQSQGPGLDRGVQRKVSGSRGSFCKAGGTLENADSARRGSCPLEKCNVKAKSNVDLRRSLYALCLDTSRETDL

[19] = target: Sodium channel protein type 5 subunit alpha (Homo sapiens, UniProt Q14524); experiment: Inhibition of Nav1.5 (unknown origin)
[20] = target: T1, Potassium voltage-gated channel subfamily KQT member 1 (Homo sapiens, UniProt P51787); experiment: Inhibition of KvLQT1 (unknown origin)
T1 sequence (P51787 whole entry): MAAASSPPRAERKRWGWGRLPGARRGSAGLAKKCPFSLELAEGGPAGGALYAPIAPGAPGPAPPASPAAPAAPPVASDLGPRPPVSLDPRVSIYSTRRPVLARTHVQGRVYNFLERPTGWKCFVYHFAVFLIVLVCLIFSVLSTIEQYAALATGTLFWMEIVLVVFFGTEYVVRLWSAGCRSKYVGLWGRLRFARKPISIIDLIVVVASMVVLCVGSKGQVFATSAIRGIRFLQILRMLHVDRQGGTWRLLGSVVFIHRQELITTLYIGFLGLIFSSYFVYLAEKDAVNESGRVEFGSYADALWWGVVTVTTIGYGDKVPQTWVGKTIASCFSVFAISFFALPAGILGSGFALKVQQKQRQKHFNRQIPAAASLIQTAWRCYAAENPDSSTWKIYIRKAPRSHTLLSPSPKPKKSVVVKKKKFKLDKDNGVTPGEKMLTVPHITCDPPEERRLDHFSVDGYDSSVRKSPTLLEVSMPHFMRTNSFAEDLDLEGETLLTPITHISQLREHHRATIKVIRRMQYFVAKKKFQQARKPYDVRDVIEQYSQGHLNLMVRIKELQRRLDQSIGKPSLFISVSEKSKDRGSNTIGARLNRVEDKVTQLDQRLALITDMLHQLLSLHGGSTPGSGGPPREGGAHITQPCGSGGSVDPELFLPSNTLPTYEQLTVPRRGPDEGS

Cytochrome P450 1A2 = target: T2, Cytochrome P450 1A2 (Homo sapiens, UniProt P05177); experiment: Inhibition of CYP1A2 (unknown origin); format: ADME
T2 sequence (P05177 whole entry): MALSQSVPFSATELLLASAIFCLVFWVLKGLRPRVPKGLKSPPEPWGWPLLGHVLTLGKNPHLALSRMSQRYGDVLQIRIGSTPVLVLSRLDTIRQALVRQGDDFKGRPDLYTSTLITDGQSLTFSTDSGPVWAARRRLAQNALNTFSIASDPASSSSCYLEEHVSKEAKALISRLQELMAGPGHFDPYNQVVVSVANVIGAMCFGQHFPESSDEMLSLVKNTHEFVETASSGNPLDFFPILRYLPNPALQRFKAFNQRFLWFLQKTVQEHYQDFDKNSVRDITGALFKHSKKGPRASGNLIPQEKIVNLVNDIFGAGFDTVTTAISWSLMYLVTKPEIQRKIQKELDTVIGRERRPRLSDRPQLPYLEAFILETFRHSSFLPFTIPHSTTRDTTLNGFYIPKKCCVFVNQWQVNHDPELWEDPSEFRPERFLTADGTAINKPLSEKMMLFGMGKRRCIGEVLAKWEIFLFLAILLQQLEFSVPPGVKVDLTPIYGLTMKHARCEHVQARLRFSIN

Cytochrome P450 2C19 = Cytochrome P450 2C19 (Homo sapiens, UniProt P33261); experiment: Inhibition of CYP2C19 (unknown origin); format: ADME
Cytochrome P450 2C19, sequence (P33261 whole entry): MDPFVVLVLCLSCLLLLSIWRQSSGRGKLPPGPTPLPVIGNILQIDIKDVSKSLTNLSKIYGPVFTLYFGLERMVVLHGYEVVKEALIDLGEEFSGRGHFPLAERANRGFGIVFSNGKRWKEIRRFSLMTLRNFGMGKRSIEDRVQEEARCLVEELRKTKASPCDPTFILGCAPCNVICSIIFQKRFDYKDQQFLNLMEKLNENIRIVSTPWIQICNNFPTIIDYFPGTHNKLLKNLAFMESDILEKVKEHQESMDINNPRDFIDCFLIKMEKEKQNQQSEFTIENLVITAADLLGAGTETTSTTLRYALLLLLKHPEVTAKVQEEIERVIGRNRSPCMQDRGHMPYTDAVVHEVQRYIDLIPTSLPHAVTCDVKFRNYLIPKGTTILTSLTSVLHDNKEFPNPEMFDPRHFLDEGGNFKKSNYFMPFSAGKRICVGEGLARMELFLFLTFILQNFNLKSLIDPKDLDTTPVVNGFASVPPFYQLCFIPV

Cytochrome P450 2C8 = target: T3, Cytochrome P450 2C8 (Homo sapiens, UniProt P10632); experiment: Inhibition of CYP2C8 (unknown origin); format: ADME
T3 sequence (P10632 whole entry): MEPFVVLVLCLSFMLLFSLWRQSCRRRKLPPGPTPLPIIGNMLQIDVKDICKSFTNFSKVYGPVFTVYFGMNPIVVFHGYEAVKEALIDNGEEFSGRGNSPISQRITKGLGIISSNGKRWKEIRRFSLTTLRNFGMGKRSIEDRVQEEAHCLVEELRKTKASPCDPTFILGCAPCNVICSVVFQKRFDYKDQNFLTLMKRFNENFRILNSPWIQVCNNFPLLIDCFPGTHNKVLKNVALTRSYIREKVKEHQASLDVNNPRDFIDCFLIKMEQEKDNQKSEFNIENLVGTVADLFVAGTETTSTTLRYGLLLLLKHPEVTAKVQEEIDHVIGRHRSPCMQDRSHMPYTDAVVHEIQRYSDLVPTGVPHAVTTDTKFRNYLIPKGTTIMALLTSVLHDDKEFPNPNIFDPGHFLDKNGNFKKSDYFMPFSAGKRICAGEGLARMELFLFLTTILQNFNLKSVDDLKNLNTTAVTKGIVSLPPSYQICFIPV

[21] = Antagonist activity at opossum TRPA1 hS5 chimera containing (867 to 983 residues) expressed in 293-T-REx cells at holding potential of 15 mV measured after 1 min by PatchXpress electrophysiology assay; format: cell-based; settings: Monodelphis domestica, 293Trex
[22] = Antagonist activity at full length opossum TRPA1 at holding potential of 15 mV measured after 1 min by PatchXpress electrophysiology assay; set-up: species or system Monodelphis domestica
[23] = Clearance in rat; format: ADME, organism-based; settings: in vivo
[24] = Volume of distribution at steady state in rat; format: ADME, organism-based; settings: in vivo, read-out: Vdss
[25] = Half life in rat; format: ADME, organism-based; settings: in vivo
[26] = Oral bioavailability in rat; format: ADME, organism-based; settings: in vivo
[27] = Drug uptake in Sprague-Dawley rat skin epidermal layer at 0.68 mg applied topically measured after 24 hrs; format: ADME, tissue-based, Skin epidermis; settings: topical or ocular, read-out: Drug uptake
[28] = Drug uptake in Sprague-Dawley rat skin dermal layer at 0.68 mg applied topically measured after 24 hrs; format: ADME, tissue-based, Dermis; settings: topical or ocular, read-out: Drug uptake

O=C(NC[C@@H](Cc1ccccc1)N1CCC(O)(C(F)(F)F)CC1)C1(c2ccc(Cl)cc2)CCCC1
IC50 [1]: 2300 nM
logD [2]: 4.7 to 5
pKa [3]: 5.9
IC50 [4]: 3 nM
IC50 [5]: 4 nM
IC50 [6]: 65 nM
Stability (Hepatocyte [7]): 38 µL/min/mg
microsomal CLint [8]: 524 µL/min/mg
Stability (Hepatocyte [9]): 30 µL/min/mg
half-life [10]: > 6 h
half-life [11]: > 6 h
solubility kinetic [12]: 12 µM (≈ 6.11 µg/mL)
fraction unbound [13]: 0.0008
fraction unbound [14]: 0.00057
IC50 [15]: > 3000 nM
IC50 [16]: > 3000 nM
IC50 [17]: > 3000 nM
INH [18]: > 3000 nM
INH [19]: > 3000 nM
INH [20]: > 3000 nM
IC50 (Cytochrome P450 1A2): > 30000 nM
IC50 (Cytochrome P450 2C19): 3150 nM
IC50 (Cytochrome P450 2C8): 11800 nM
IC50 [21]: 20 nM
IC50 [22]: ≥ 3000 nM
clearance [23]: 42 mL/min/kg
Vd [24]: 3.99 L/kg
half-life [25]: 4.4 h
bioavailability [26]: 5%
concentration at 24 h [27]: 3.13e+06 ng/g
concentration at 24 h [28]: 640000 ng/g
